Results on 9 compounds are retold here after US11299453B2 (Universität zu Köln, priority 2017, dated 2022).

Series [1] has as its system murine αPIG-AT25 iPSCs, αPIG44-D3 ESCs and R1 ESCs. The series is described as follows: Cell viability (PrestoBlue), results pooled over murine PSC lines. The series is classed as cell-based. As to conditions: 40 μM, 72 h. The text has this: (§1) The transgenic murine induced pluripotent stem cell (miPSC) line αPIG-AT25 was generated from the miPSC line TiB7.4 as described in Fatima A et al., Stem Cell Res. 2016 Sep.; 17(2):266-272. The murine embryonic stem cell (ESC) line αPIG44-D3 was equally derived from D3 ESC line. Both transgenic mPSC lines express the IRES-linked genes encoding puromycin N-acetyl-aminotransferase (PAC) and enhanced green fluorescent protein (eGFP) which are under the control of cardiac alpha myosin heavy chain (α-MHC) promoter. They were cultured on mitomycin-inactivated mouse embryonic fibroblasts (MEF) in maintenance medium composed of Dulbecco's minimal essential medium (DMEM) with GlutaMAX (Life Technologies, Carlsbad, USA) supplemented with 15% fetal bovine serum (FBS, Sigma-Aldrich, St. Louis, USA), 1× non-essential amino acids (NEEA, Life Technologies), 50 μM β-mercaptoethanol (β-ME, Life Technologies) and 1000 U/ml of murine leukemia inhibitory factor (mLIF, ORF Genetics, Kopavogur, Iceland). Cell passaging was performed every 2-3 days by dissociating the cells with 0.05% trypsin-EDTA (Life Technologies) and seeding 1-2×10^4 cells/cm^2. The wild type mESC line R1 was cultured on cell culture plates coated with 0.1% gelatin (Sigma-Aldrich) and maintained like the transgenic mPSCs.
(§2) Serial dilutions of DMSO stock solutions of PluriSIn #1 (Sigma-Aldrich, catalog number SML0682) or one of small molecules SM1-SM10, were prepared from 20 mM stock solutions with cell culture medium. Murine PSCs were dissociated with 0.05% trypsin-EDTA, seeded on 0.1% gelatin-coated 96-well plates with a density of 5000 cells/well and cultured in maintenance medium supplemented with 1000 U/ml of mLIF. After 1 day, cells were incubated with 40 μM PluriSIn #1 and derivatives for 72 h or with 0.01-25 μM SMs for 48 h, respectively. For treatment of corresponding PSC-derived CMs with SMs, puromycin-selected miPSC-CMs from day 14 of differentiation were dissociated with 0.25% trypsin-EDTA as described above and plated on 96-well plates (5×10^4 cells/well) which were pre-coated with 5 μg/ml fibronectin (PromoCell, Heidelberg, Germany). After culturing miPSC-CMs with 8 μg/ml puromycin for 2 more days, they were incubated in differentiation medium supplemented with 0.1-100 μM of SMs for 48-72 h. Following small molecule treatment, cell viability was determined with PrestoBlue cell viability reagent (Life Technologies). To this end, cells were washed with PBS (with calcium and magnesium, Life Technologies) and incubated with PrestoBlue reagent diluted in cell culture medium for 40 min at 37° C.
(§3) Fluorescence intensities correlating with the number of viable cells in the wells were measured in black flat-bottom 96-well plates (Greiner Bio-One, Kremsmünster, Austria) with a GeniosPro microplate reader (Tecan, Männedorf, Schweiz).
To confirm the cytotoxicity of the compounds to PSCs, toxicity test were also run with murine ESC lines αPIG44-D3 and R1, and for comparison with αPIG-AT25 murine iPSC line. The cells were incubated for 48 h with compounds SM1, SM2, SM4, SM5, SM6 and SM8 in concentrations of 0.01 μM and 10 μM. Cell culture was performed as described above. Experiments were run in quadruplicate and negative and positive control cells were treated with 0.05% DMSO or 8 μg/ml puromycin, respectively. Cell viability was determined using PrestoBlue cell viability reagent.
Murine αPIG-AT25 iPSCs, αPIG44-D3 ESCs and R1 ESCs were incubated with 40 μM PluriSIn #1 (Sigma-Aldrich, catalog number SML0682) for 72 h. Cell culture was performed as described above for determination of the compounds. Experiments were run in quadruplicate and negative and positive control cells were treated with 0.08% DMSO or 8 μg/ml puromycin, respectively. The cell viability was determined using PrestoBlue cell viability reagent. […]

Series [2] deals with human pluripotent stem cells. As to conditions: exposure for 48 hours; cited from earlier work.
The test system of series [3] is teratoma formation. As to conditions: after transplanting 1 million cells into immunodeficient mice; cited from earlier work.
For series [4], the system named is murine αPIG-AT25 iPSCs. The series is described as follows: Cell viability (PrestoBlue) of murine iPSCs after compound treatment. As to conditions: 48 h; for toxicity to miPSCs (in words): 0.1-25 μM; for concentration dependence of effect on miPSC viability: 0.1, 1, 10 and 25 μM. Type of series: cell-based.
Description: as §1, §2, §3
IC50 values were determined by regression analysis of dose-response curves upon logarithmic transformation. Microscopic images of PSCs were taken with a Zeiss Axiovert 100 inverted microscope and GFP images of CMs were captured with a Zeiss Axiovert 200M fluorescence microscope (both Carl Zeiss, Oberkochen, Germany) and analyzed with Zeiss Axiovision 4.5 software (Carl Zeiss).
The cytotoxicity of the compounds according to formulas SM1 to SM10 to pluripotent stem cells (PSCs) was determined in a population of murine αPIG-AT25 iPSCs, which were incubated for 48 h with compounds SM1 to SM10 in concentrations of 0.1 μM, 1 μM, 10 μM and 25 μM. Cell culture was performed as described above. Experiments were run in quadruplicate and negative and positive control cells were treated with 0.125% DMSO or 8 μg/ml puromycin, respectively. The cell viability was determined using PrestoBlue cell viability reagent. […]

In series [5] the test system is human neural progenitor cells derived from the human iPSC line Royan-hiPSC4. The series is described as follows: Cell viability (PrestoBlue) of human iPSC-derived neural progenitor cells. As to conditions: 1 μM, 72 h of treatment. Type of series: cell-based. The procedure:
To confirm the cytotoxicity of the compounds to PSCs, toxicity tests were also run with human neural progenitor cells (passage 20) derived from the human iPSC line Royan-hiPSC4 (RSCB0082). The cells were incubated for 24 h, 48 h and 72 h with compounds SM20, SM21, SM22 and SM23 in concentrations of 1 μM, 3 μM, 10 μM and 25 μM. Cell culture was performed as described above except that Koch medium was used. Experiments were run in quadruplicate and negative and positive control cells were treated with 0.001% DMSO or 0.1 μM, 1 μM, 10 μM and 25 μM of SM6, respectively. Cell viability was determined using PrestoBlue cell viability reagent.

In series [6] the test system is murine αPIG-AT25 iPSC-CM monolayers.

In the case of `O=C(NNc1ccccc1)c1ccncc1` [PluriSIn #1], the “reduction of cell viability, on average over the three murine PSC lines” value in series [1] turned out to be 51.32±10.86%. In series [2], the “removal of human pluripotent stem cells from the culture” value is on record as “successfully removed human pluripotent stem cells from the culture”. In addition, the teratoma formation entry in series [3] is “prevented teratoma formation”.

In the case of `CN(Cc1cccc(-c2ccccc2)c1O)[C@@H]1CCCC[C@H]1N(C)Cc1cccc(-c2ccccc2)c1O` [SM3, (1R,2R)-N,N′-dimethyl-N,N′-di[(2-hydroxy-3-phenyl)-benzyl]-1,2-diaminocyclohexane], the “toxicity to miPSCs (in words)” value in series [4] was “did not”.

In the case of `CC(C)(C)c1cc(C(=O)N[C@@H]2CCCC[C@H]2NC(=O)c2cc(C(C)(C)C)cc(C(C)(C)C)c2O)c(O)c(C(C)(C)C)c1` [SM7, (1R,2R)-N,N′-di[(2-hydroxy-3,5-di-tert.- butyl)benzoyl]-1,2-diaminocyclohexane], in series [4], the “toxicity to miPSCs (in words)” value is “did not”.

With `CN(Cc1cc(C(C)(C)C)cc(C(C)(C)C)c1O)[C@@H]1CCCC[C@H]1N(C)Cc1cc(C(C)(C)C)cc(C(C)(C)C)c1O` [SM9, (1R,2R)-N,N′-dimethyl-N,N′-di[(2-hydroxy-3,5-di-tert.- butyl)benzyl]-1,2-diaminocyclohexane], in series [4], the “concentration dependence of effect on miPSC viability” value is recorded as “did not show a concentration dependent effect” and the “toxicity to miPSCs (in words)” value is recorded as “did not”.

Turning to `CC(C)(C)c1cc(CN[C@@H]2CCCC[C@H]2NCc2cc(C(C)(C)C)cc(C(C)(C)C)c2O)c(O)c(C(C)(C)C)c1` [SM10, (1R,2R)-N,N′-di[(2-hydroxy-3,5-di-tert.- butyl)benzyl]-1,2-diaminocyclohexane], in series [4], the “concentration dependence of effect on miPSC viability” value was “did not show a concentration dependent effect” and the “toxicity to miPSCs (in words)” value is “did not”.

As for `Oc1c(CN[C@@H]2CCCC[C@H]2NCc2cccc(-c3c(F)c(F)c(F)c(F)c3F)c2O)cccc1-c1c(F)c(F)c(F)c(F)c1F` [SM20, (1R,2R)-N,N′-di[(2-hydroxy-3-penta-fluorophenyl)-benzyl]-1,2-diaminocyclohexane], in series [5], the NPCs killed result is given as “eliminated all cells”. The “toxicity to miPSCs (in words)” value in series [4] is on record as “good toxicity”.

On to `c1ccc2[nH]c(CN[C@@H]3CCCC[C@H]3NCc3cc4ccccc4[nH]3)cc2c1` [SM21, (1R,2R)-N,N′-di[(2-indolyl)methyl]-1,2-diaminocyclohexane], for which the “toxicity to miPSCs (in words)” value in series [4] is reported as “good toxicity”.

In the case of `Oc1c(CN[C@@H]2CCCC[C@H]2NCc2cccc(-c3cccs3)c2O)cccc1-c1cccs1` [SM23, (1R,2R)-N,N′-di([2-hydroxy-3-(2-thienyl)]-benzyl)-1,2-diaminocyclohexane], in series [5], the NPCs killed entry is on record as “eliminated all cells”. Further, in series [4], the “toxicity to miPSCs (in words)” value is on record as “good toxicity”.

Regarding `N.N.[Cl][Pt][Cl]` [cisplatin], in series [6], the “apoptotic CMs (cleaved caspase-3 staining)” value was “presence of apoptotic CMs” and the “sarcomere structure (α-actinin staining)” value is on record as “degradation of the sarcomere structure”.
